Test results: ChEMBL document CHEMBL2021794, “Synthesis, σ₁, σ₂-receptors binding affinity and antiproliferative action of new C1-substituted adamantanes” (Bioorg Med Chem, 2012)
Active and inactive are the calls of the source. The calls are words filed in the database; no cut-off is given here.

Key:
[1] = Selectivity ratio of IC50 for human sigma-1 receptor to IC50 for rat sigma-2 receptor
[2] = test system: PC-3; experiment: Cell cycle arrest in human PC3 cells assessed as accumulation at < G1 phase at 0.5 uM after 24 hrs by propidium iodide staining based flow cytometry (reference value: 4%); type: functional
[3] = test system: IGROV-1; experiment: Cell cycle arrest in human IGROV1 cells assessed as accumulation at G2 phase at 15 uM after 24 hrs by propidium iodide staining based flow cytometry (reference value: 19%); type: functional
[4] = test system: BXPC-3; experiment: Cell cycle arrest in human BxPC3 cells assessed as accumulation at S phase at 50 uM after 24 hrs by propidium iodide staining based flow cytometry (reference value: 33%); type: functional
[5] = test system: BXPC-3; experiment: Cell cycle arrest in human BxPC3 cells assessed as accumulation at >G2 phase at 5 uM after 24 hrs by propidium iodide staining based flow cytometry (reference value: 6%); type: functional
[6] = test system: BXPC-3; experiment: Induction of apoptosis in human BxPC3 cells assessed as early apoptotic cells at 50 uM after 24 hrs by Annexin V/7-AAD staining based flow cytometry (reference value: 11%); type: functional
[7] = test system: MCF7; experiment: Growth inhibition of human MCF7 cells after 48 hrs by SRB assay; type: functional; settings: MCF7, 48 h
[8] = test system: BXPC-3; experiment: Induction of apoptosis in human BxPC3 cells assessed as late apoptotic cells at 5 uM after 24 hrs by Annexin V/7-AAD staining based flow cytometry (reference value: 9%); type: functional
[9] = test system: PC-3; experiment: Cell cycle arrest in human PC3 cells assessed as accumulation at G2 phase at 0.5 uM after 24 hrs by propidium iodide staining based flow cytometry (reference value: 13%); type: functional
[10] = test system: IGROV-1; experiment: Induction of apoptosis in human IGROV1 cells assessed as cleaved caspase-3 containing cells at 50 uM after 24 hrs by FACS analysis (reference value: 4%); type: functional
[11] = test system: SF-268; experiment: Cytotoxicity against human SF268 cells after 48 hrs by trypan blue assay; type: functional, cell-based
[12] = test system: PC-3; experiment: Cell cycle arrest in human PC3 cells assessed as accumulation at G1 phase at 50 uM after 24 hrs by propidium iodide staining based flow cytometry (reference value: 36%); type: functional
[13] = test system: HUVEC; experiment: (§1) Growth inhibition of HUVEC cells after 48 hrs by SRB assay; type: cell-based; settings: human, huvec, 48 h
[14] = as §1; type: cell-based; settings: human, HUVEC cells
[15] = test system: PC-3; experiment: Induction of apoptosis in human PC3 cells assessed as total apoptotic death cells at 5 uM after 24 hrs by Annexin V/7-AAD staining based flow cytometry (reference value: 7%); type: functional
[16] = test system: IGROV-1; experiment: Cell cycle arrest in human IGROV1 cells assessed as accumulation at G2 phase at 0.5 uM after 24 hrs by propidium iodide staining based flow cytometry (reference value: 19%); type: functional
[17] = test system: PC-3; experiment: Induction of apoptosis in human PC3 cells assessed as late apoptotic cells at 5 uM after 24 hrs by Annexin V/7-AAD staining based flow cytometry (reference value: 2%); type: functional
[18] = test system: BXPC-3; experiment: Induction of apoptosis in human BxPC3 cells assessed as late apoptotic cells at 50 uM after 24 hrs by Annexin V/7-AAD staining based flow cytometry (reference value: 9%); type: functional
[19] = test system: PC-3; experiment: Induction of apoptosis in human PC3 cells assessed as early apoptotic cells at 50 uM after 24 hrs by Annexin V/7-AAD staining based flow cytometry (reference value: 5%); type: functional
[20] = test system: Mus musculus; experiment: Toxicity in SCID mouse assessed as weight loss at 40 mg/kg, ip after 3 to 4 weeks chronic treatment; type: organism-based; design: dose 40 mg/kg, route intraperitoneal; settings: in vivo
[21] = test system: PC-3; experiment: Induction of apoptosis in human PC3 cells assessed as early apoptotic cells at 5 uM after 24 hrs by Annexin V/7-AAD staining based flow cytometry (reference value: 5%); type: functional
[22] = test system: PC-3; experiment: Induction of apoptosis in human PC3 cells assessed as healthy cells at 5 uM after 24 hrs by Annexin V/7-AAD staining based flow cytometry (reference value: 92%); type: functional
[23] = test system: IGROV-1; experiment: Cytotoxicity against human IGROV1 cells after 48 hrs by trypan blue assay; type: functional, cell-based
[24] = test system: HCT-116; experiment: Growth inhibition of human HCT116 cells after 48 hrs by SRB assay; type: functional; settings: HCT-116, 48 h
[25] = test system: NCI-H460; experiment: Growth inhibition of human NCI-H460 cells after 48 hrs by SRB assay; type: functional; settings: NCI-H460, 48 h
[26] = test system: PC-3; experiment: Induction of apoptosis in human PC3 cells assessed as healthy cells at 50 uM after 24 hrs by Annexin V/7-AAD staining based flow cytometry (reference value: 92%); type: functional
[27] = test system: IGROV-1; experiment: Cell cycle arrest in human IGROV1 cells assessed as accumulation at G1 phase at 0.5 uM after 24 hrs by propidium iodide staining based flow cytometry (reference value: 27%); type: functional
[28] = test system: DMS-114; experiment: Growth inhibition of human DMS114 cells after 48 hrs by SRB assay; type: functional; settings: DMS-114, 48 h
[29] = test system: PC-3; experiment: Cell cycle arrest in human PC3 cells assessed as accumulation at < G1 phase at 15 uM after 24 hrs by propidium iodide staining based flow cytometry (reference value: 4%); type: functional
[30] = test system: PC-3; experiment: Cell cycle arrest in human PC3 cells assessed as accumulation at G1 phase at 0.5 uM after 24 hrs by propidium iodide staining based flow cytometry (reference value: 36%); type: functional
[31] = test system: PC-3; experiment: Cell cycle arrest in human PC3 cells assessed as accumulation at G2 phase at 15 uM after 24 hrs by propidium iodide staining based flow cytometry (reference value: 13%); type: functional
[32] = test system: HCT-116; experiment: Cytotoxicity against human HCT116 cells after 48 hrs by trypan blue assay; type: functional, cell-based
[33] = test system: IGROV-1; experiment: Cell cycle arrest in human IGROV1 cells assessed as accumulation at >G2 phase at 5 uM after 24 hrs by propidium iodide staining based flow cytometry (reference value: 21%); type: functional
[34] = test system: HL-60(TB); experiment: Growth inhibition of human HL-60(TB) cells after 48 hrs by SRB assay; type: functional; settings: HL-60, 48 h
[35] = test system: SF-268; experiment: Growth inhibition of human SF268 cells after 48 hrs by SRB assay; type: functional; settings: SF-268, 48 h
[36] = test system: IGROV-1; experiment: Induction of apoptosis in human IGROV1 cells assessed as healthy cells at 15 uM after 24 hrs by Annexin V/7-AAD staining based flow cytometry (reference value: 86%); type: functional
[37] = test system: BXPC-3; experiment: Cell cycle arrest in human BxPC3 cells assessed as accumulation at G1 phase at 5 uM after 24 hrs by propidium iodide staining based flow cytometry (reference value: 41%); type: functional
[38] = test system: PC-3; experiment: Induction of apoptosis in human PC3 cells assessed as healthy cells at 15 uM after 24 hrs by Annexin V/7-AAD staining based flow cytometry (reference value: 92%); type: functional
[39] = test system: PC-3; experiment: Cell cycle arrest in human PC3 cells assessed as accumulation at >G2 phase at 0.5 uM after 24 hrs by propidium iodide staining based flow cytometry (reference value: 6%); type: functional
[40] = read-out: LC50 (the source's name)

In the case of `CN1CCN(c2ccc(C(c3ccccc3)C34CC5CC(CC(C5)C3)C4)cc2)CC1` (configuration not stated), the Ratio IC50 [1] is reported as 11.8, the Activity [2] is reported as 9% and the Activity [3] is reported as 21%. It also gave an Activity [4] of 24%, an Activity [5] of 8% and an Activity [6] of 15%. The GI50 [7] was 11.6 µM, the TGI [7] was 16.9 µM and the CC50 [7, 40] was 3.17 µM. For the same molecule, the Activity [8] was 17%, the Activity [9] was 14% and the Activity [10] was 68%. The Activity [11] was “Active”, the Activity [12] was 35% and the LC50 [13] was 10.34 µM. The TGI [13] was 7.43 µM, the GI50 at 48 h [14] was 4.52 µM and the Activity [15] was 7%. For the same molecule, the Activity [16] was 20%, the Activity [17] was 2% and the Activity [18] was 33%. The Activity [19] was 24%, the Activity [20] was “Non-toxic” and the Activity [21] was 5%. For the same molecule, the Activity [22] was 92%, the Activity [23] was “Active” and the GI50 [24] was 4.92 µM. It also gave a TGI [24] of 9.37 µM, a CC50 [24, 40] of 100 µM and a GI50 [25] of 4.41 µM. The LC50 (concentration killing 50% of cells) [25] was 100 µM, the TGI [25] was 7.66 µM and the Activity [26] was 61%. For the same molecule, the Activity [27] was 26%, the GI50 [28] was 5.43 µM and the TGI [28] was 9.17 µM. The CC50 [28, 40] was 100 µM, the Activity [29] was 8% and the Activity [30] was 33%. The Activity [31] was 9%, the Activity [32] was “Active” and the Activity [33] was 21%. For the same molecule, the GI50 [34] was 5.04 µM, the LC50 [34] was 78.5 µM and the TGI [34] was 9.63 µM. The GI50 [35] was 18.9 µM, the TGI [35] was 61.6 µM and the CC50 [35, 40] was 100 µM. For the same molecule, the Activity [36] was 62%, the Activity [37] was 43% and the Activity [38] was 89%. For the same molecule, the Activity [39] was 4%.
